Results on 2 molecules are retold here after US9890139B2, “CYP17 inhibitors/antiandrogens” (Orion Corporation, priority 2013, dated 2018).

For orientation: IC50 means the point on the concentration scale where inhibition reaches its midpoint.

Read-outs that look alike come from different tables or passages of the source.

For one assay, the target named is T1, 17,20 lyase (CYP17) (Homo sapiens, UniProt P05093).
T1 construct: endogenous in cells; host or cells: H295R human adrenocortical carcinoma cells
T1 sequence (P05093 1-508): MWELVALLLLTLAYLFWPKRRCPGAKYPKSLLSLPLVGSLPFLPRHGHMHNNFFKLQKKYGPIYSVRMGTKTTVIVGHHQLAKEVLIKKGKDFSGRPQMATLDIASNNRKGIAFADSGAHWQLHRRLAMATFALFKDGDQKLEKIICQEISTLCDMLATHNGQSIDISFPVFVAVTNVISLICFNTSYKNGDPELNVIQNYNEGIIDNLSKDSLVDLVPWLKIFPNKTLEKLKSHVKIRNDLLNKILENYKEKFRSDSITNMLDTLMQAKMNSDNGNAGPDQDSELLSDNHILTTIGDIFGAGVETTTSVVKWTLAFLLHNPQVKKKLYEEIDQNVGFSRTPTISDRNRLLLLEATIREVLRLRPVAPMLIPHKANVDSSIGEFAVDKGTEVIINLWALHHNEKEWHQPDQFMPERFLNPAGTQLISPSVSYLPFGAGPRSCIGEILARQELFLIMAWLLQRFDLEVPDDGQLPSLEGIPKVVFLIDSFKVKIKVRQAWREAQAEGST
In words: 17,20 lyase (CYP17) inhibition, acetic acid release assay (AARA) on H295R cells. The class given is cell-based. The method, then: The ability of the test compounds to inhibit 17,20 lyase catalysed conversion of 17α-hydroxypregnenolone to dehydroepiandrosterone and acetic acid was measured by acetic acid release assay (AARA) on human H295R adrenocortical carcinoma cell line (Grigoryev, D. N. et al., Analytical Biochemistry 1999; 267:319-330). […] The final DMSO concentration was 1%. Cell culture medium was extracted with dextran-coated charcoal suspension (Isomaa, V. et al., Endocrinology 1982; 111(3):833-843). ^3H-acetic acid was determined by mixing 100 μl of supernatant fraction in 200 μl of scintillation fluid (OptiPhase SuperMix, Perkin Elmer). Radioactivity was measured using a Microbeta scintillation counter (1450 MicroBeta Trilux, Wallac). All the test compounds were studied in quadruplicates.

The target in another assay is T2, full-length human AR (Homo sapiens, UniProt P10275).
T2 construct: expression vector encoding full-length human AR; expressed in transfected cells; host or cells: HEK293 (hAR/HEK293 cells)
T2 sequence (P10275 1-920): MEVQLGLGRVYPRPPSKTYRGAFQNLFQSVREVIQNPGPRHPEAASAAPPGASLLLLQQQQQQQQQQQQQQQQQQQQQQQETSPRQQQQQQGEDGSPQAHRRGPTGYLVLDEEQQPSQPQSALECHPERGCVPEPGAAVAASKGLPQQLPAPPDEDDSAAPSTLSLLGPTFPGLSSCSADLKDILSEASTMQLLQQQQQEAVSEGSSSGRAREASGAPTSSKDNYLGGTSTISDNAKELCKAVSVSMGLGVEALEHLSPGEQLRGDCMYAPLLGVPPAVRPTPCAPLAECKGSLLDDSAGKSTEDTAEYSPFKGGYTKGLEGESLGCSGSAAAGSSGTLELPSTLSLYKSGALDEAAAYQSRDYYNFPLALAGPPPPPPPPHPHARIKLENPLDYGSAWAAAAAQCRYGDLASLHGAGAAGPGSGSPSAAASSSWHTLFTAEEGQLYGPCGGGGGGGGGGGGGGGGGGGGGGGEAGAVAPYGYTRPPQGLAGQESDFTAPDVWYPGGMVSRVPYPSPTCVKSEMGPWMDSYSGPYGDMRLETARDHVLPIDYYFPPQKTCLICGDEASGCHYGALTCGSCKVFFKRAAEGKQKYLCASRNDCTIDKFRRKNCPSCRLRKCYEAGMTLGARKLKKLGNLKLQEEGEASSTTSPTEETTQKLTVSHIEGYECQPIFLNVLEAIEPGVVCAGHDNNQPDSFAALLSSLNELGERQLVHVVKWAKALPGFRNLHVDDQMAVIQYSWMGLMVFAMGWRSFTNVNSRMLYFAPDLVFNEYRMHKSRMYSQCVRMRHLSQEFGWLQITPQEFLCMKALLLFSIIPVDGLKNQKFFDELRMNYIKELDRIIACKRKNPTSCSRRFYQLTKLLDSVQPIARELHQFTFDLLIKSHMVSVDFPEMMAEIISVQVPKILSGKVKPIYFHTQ
Kind of assay: AR antagonism, reporter gene assay in hAR/HEK293 cells. The class given is cell-based. Particulars: HEK293 cells stably transfected with full-length human AR and androgen responsive luciferase reporter; co-treated with submaximal testosterone (usually 0.45 nM); 1% DMSO; triplicates. Background: In a reporter assay the amount or activity of a reporter protein is the signal.

`COc1cc(N(C)C2C=C(n3ccnc3)CCC2(C)C)ccc1C#N` (stereo not shown) [Ex. 252, 4-{[3-(1H-Imidazol-1-yl)-6,6-dimethylcyclohex-2-enyl](methyl)amino}-2-methoxybenzonitrile]: the 50% inhibitory concentration (IC50) is 33 nM at 17,20 lyase (CYP17) (human H295R adrenocortical carcinoma cells, overnight (16-19 h) with 17α-[21-3H]hydroxypregnenolone, 3H-acetic acid release, 1% DMSO, quadruplicates, read-out: CYP17 inhibition IC50) and 141 nM on full-length human AR.

Take `CCN(c1ccc(C#N)c(C(F)(F)F)c1)C1CC=C(n2ccnc2)C1(C)C` (stereo not shown) [Ex. 275, 4-((3-(1H-imidazol-1-yl)-2,2-dimethylcyclopent-3-en-1-yl)(ethyl)amino)-2-(trifluoromethyl)benzonitrile]: the half-maximal inhibitory concentration (IC50) on 17,20 lyase (CYP17) was found to be 82 nM; at full-length human AR, 63 nM.
